Data: patent US11359178B2, “Method for producing parasympathetic neurons” (NATIONAL INSTITUTE OF ADVANCED INDUSTRIAL SCIENCE AND …, priority 2018, dated 2022)

Key:
[1] = system: parasympathetic neurons obtained by culturing in the differentiation-inducing medium 3 (NDM+PMA+RA); conditions: nicotine 1 μM; neurons induced in NDM+PMA+RA, 13th to 37th day from start of culturing
Description: Furthermore, response to nicotine stimulation for parasympathetic neurons obtained by culturing in the differentiation-inducing medium 3 (NDM+PMA+RA) was assessed by intracellular calcium imaging. 1 mg/mL Fluo-4 AM (Invitrogen, F14201)/DMSO was directly added to a medium on the differentiation induction culture 24th day at a final concentration of 5 μg/mL. After incubation in an incubator (37° C., 5% CO2) for 30 minutes, the medium was removed and replaced with Ringer's solution (149 mM NaCl, 2.8 mM KCl, 2 mM CaCl2, 1 mM MgCl2, 10 mM HEPES, 10 mM D-(+)-glucose [pH 7.4]), and changes in the intracellular calcium concentrations were measured by detecting changes in the fluorescence intensity. For the measurement, 300 frames were photographed at a frame rate of 2 fps using an Olympus microscope (IX81), EMCCD (Andor iXon), and MetaMorph Software (Molecular Devices). Additionally, nicotine stimulation was performed by adding nicotine to Ringer's solution at a final concentration of 1 μM. ImageJ was used for data analysis after measurement.

[2] = system: autonomic neural progenitor cells; experiment: Induction of autonomic neural progenitor cells to differentiate into parasympathetic neurons, immune cell staining (TH, ChAT, PHOX2B, MAP2); assay type: cell-based, Human
Description: A 24-well plate coated with poly-L-ornithine and laminin was prepared by the following procedure. The plate was coated for one hour with a PLO solution (20 μg/mL) prepared with DW, washed once with DW, and coated for two hours with a laminin solution (5 μg/mL) prepared with PBS. Subsequently, the N2 medium was supplemented with 10 μM FSK, 10 ng/mL BDNF, 10 ng/mL GDNF, 10 ng/mL NT-3, 10 ng/mL NGF, and 50 μg/mL Ascorbic Acid (all final concentrations) to prepare a neural differentiation medium (NDM).
The following four kinds of differentiation-inducing media were prepared using NDM:
Differentiation-inducing medium 1: NDM+10 ng/mL PMA (final concentration)
Differentiation-inducing medium 2: NDM+1 μM RA (final concentration)
Differentiation-inducing medium 3: NDM+10 ng/mL PMA+1 μM RA (both final concentrations)
Differentiation-inducing medium 4: NDM only (by a known method)
The autonomic neural progenitor cells obtained by the above-described Step 5 were washed once with PBS, followed by addition of TrypLE Express Enzyme (250 μL/well), and cells were exfoliated by incubating the medium for five minutes. 10% FBS-containing DMEM was added to terminate the enzyme reaction, and the cells were collected in a centrifuge tube. After the medium was centrifuged at 200×g for four minutes, the supernatant was removed, cells were suspended with NDM, and the cells were counted. […] The media cultured for at least 20 days from the start of culturing with the differentiation-inducing media 1 to 4 were analyzed by immune staining and intracellular calcium imaging following the procedure described below. […]
The primary antibody solution was removed, and the plate was washed twice with 0.2% Tween 20/PBS, followed by addition of a secondary antibody/Can Get Signal Solution A (1000-fold diluted Alexa Fluro488 or 1000-fold diluted Alexa Fluor555) or 3000-fold diluted Hoechst 33342 solution, and the mixture was allowed to stand for one hour at room temperature. The secondary antibody solution was removed, and the plate was washed twice with 0.2% Tween 20/PBS and then observed under a fluorescence microscope.

GATA3 = conditions: Yamashita et al. 2002; Th2 cell differentiation; cited from earlier work
[3] = differentiation induction 13th to 87th day from start of culturing, 10 ng/mL PMA and/or 1 μM RA in NDM, compared with NDM only (FIG. 2)

SMILES	response to nicotine stimulation (intracellular calcium, Fluo-4 AM fluorescence) [1]	differentiation induction efficiency ([2]; 13th to 87th day, single additive in NDM, compared with NDM only)	ChAT positive cells (parasympathetic neuron marker) [2, 3]	TH positive cells (sympathetic neuron marker) [2, 3]	expression of transcription factor GATA3 (GATA3)
CN1CCCC1c1cccnc1 (single isomer, unassigned; (-)) [nicotine, (−)-Nicotine]	strong response				
CCCCCCCCCCCCCC(=O)O[C@@H]1[C@@H](C)[C@@]2(O)[C@@H](C=C(CO)C[C@]3(O)C(=O)C(C)=C[C@@H]23)[C@@H]2C(C)(C)[C@]12OC(C)=O [PMA, Phorbol 12-myristate 13-acetate]		reduced	markedly reduced	markedly reduced	enhance
